{"source": "paper PMC4339887", "about": "“Selective Sirt2 inhibition by ligand-induced rearrangement of the active site” (Nature Communications, 2015)", "tested_on": "mitochondrial lysine-acetylation in HEK293 cells", "assay": "mitochondrial protein acetylation, western blot of mitochondrial extracts", "assay_type": "cell-based", "details": "16 h", "experimental": "page 27: Cell cultiva tion. HEK-293 cells (ATCC accession no. CRL-1573) were grown in Dulbecco's modified Eagle's medium (DMEM, PAA) containing 10% (vol/vol) fetal calf serum (FCS, PAA), 1% (vol/vol) penicillin (PAA), 1% (vol/vol) streptomycin (PAA), 1% (vol/vol), L- glutamine (PAA) at 37 °C in a 5% (vol/vol) CO2 atmosphere. Mitochondrial extra ction. HEK-293 cells (ATCC accession no. CRL-1573) were treated with nicotinamide or […]2 at the indicated concentrations for 16 h. Cells were washed in PBS and lysed in 5 packed cell volumes of lysis buffer (20 mM HEPES/KOH, 250 mM sucrose; 10 mM KCl, 1.5 mM MgCl2, 1 mM EDTA, 1 mM EGTA, 1 mM DTT; 0.1 mM PMSF, 1uComplete Protease Inhibitor Cocktail (Roche), pH 7.5). Cells were then homogenized in a Dounce homogenizer and 10% (vol/vol) of sample was removed for use as whole cell extract (WCE). To the remaining lysate, unbroken cells and nuclei were removed by centrifugation (10 min, 800g). The supernatant was transferred and centrifuged (10 min, 7,000g) to pellet mitochondria. Mitochondria were washed twice in lysis buffer, repeating centrifugation after each wash, followed by resuspending washed mitochondria in lysis buffer. […] Lysates were cleared by centrifugation, protein concentrations were quantitated and normalized with 1u Laemmli Buffer. […]"}
{"smiles": "Cc1cc(C)nc(SCC(=O)Nc2ncc(Cc3cccc4ccccc34)s2)n1", "note": "[SirReal2]", "values": [{"measurement": "acetylation of mitochondrial proteins", "value": "does not alter"}]}
